# Laboratory results: patent publication US20260176260A1, “DUAL RAF AND TUBULIN INHIBITORS AND METHODS OF USE THEREOF” (Deciphera Pharmaceuticals, LLC, priority 2023, published 2026)
# Like-named read-outs stand apart in the source and are kept apart here.
# Columns and labels:
# HCT-116 cells = experiment: HCT-116 cell proliferation assay (resazurin); assay type: cell-based; conditions: Homo sapiens
# Description: HCT-116 cells (catalog #CCL-247) are obtained from the American Type Culture Collect (ATCC, Manassas, VA). Briefly, cells are grown in McCoy's 5A supplemented with 10% characterized fetal bovine serum (Invitrogen, Carlsbad, CA) and 1% Penicillin/Streptomycin/L-Glutamine at 37° C., 5% CO2, and 95% humidity. Cells are expanded until reaching 70-95% confluency at which point they are sub-cultured or harvested for assay use. A serial dilution of test compound is dispensed into a 384-well black clear bottom plate in triplicate. 375 cells are added per well in 50 μL complete growth medium in the 384-well plate. Plates are incubated for 67 to 72 h at 37° C., 5% CO2, and 95% humidity. At the end of the incubation, 40 μL of a […] solution of resazurin (Sigma, St. Louis, MO) in PBS is added to each well of the plate and plates are incubated for an additional 4 to 5 h at 37° C., 5% CO2, and 95% humidity. Plates are read on a Synergy2 or equivalent reader (Biotek, Winooski, VT) using an excitation of 540 nm and an emission of 600 nm. Data is analyzed using Prism software (Graphpad, San Diego, CA) to calculate IC50 values.
# Pa16c cells = experiment: Pa16c cell proliferation assay (resazurin); assay type: cell-based; conditions: Table 2, inhibition of cell proliferation
# Description: Pa16c cells are obtained from Dr. Channing Der, University of North Carolina at Chapel Hill. Briefly, cells are grown in Dulbecco's Modified Eagle Medium supplemented with 10% characterized fetal bovine serum (Invitrogen, Carlsbad, CA) and 1% Penicillin/Streptomycin/L-Glutamine at 37° C., 5% CO2, and 95% humidity. Cells are expanded until reaching 70-95% confluency at which point they are sub-cultured or harvested for assay use. A serial dilution of test compound is dispensed into a 384-well black clear bottom plate in triplicate. 750 cells are added per well in 50 μL complete growth medium in the 384-well plate. Plates are incubated for 67 to 72 h at 37° C., 5% CO2, and 95% humidity. At the end of the incubation, 40 μL of a […] solution of resazurin (Sigma, St. Louis, MO) in PBS is added to each well of the plate and plates are incubated for an additional 18 to 24 h at 37° C., 5% CO2, and 95% humidity. Plates are read on a Synergy2 or equivalent reader (Biotek, Winooski, VT) using an excitation of 540 nm and an emission of 600 nm. Data is analyzed using Prism software (Graphpad, San Diego, CA) to calculate IC50 values.
# C-Raf kinase = biological target: T1, C-Raf kinase (Homo sapiens, UniProt P04049, Y340D/Y341D); experiment: Biochemical assay for C-Raf (coupled pyruvate kinase/lactate dehydrogenase)
# T1 construct: C-Raf residues 306-end; Y340D, Y341D with N-; purchased Sigma
# HPAF-II cells = experiment: HPAF-II cell proliferation assay (resazurin); assay type: cell-based; conditions: Homo sapiens
# Description: HPAF-II cells (catalog #CRL-1997) are obtained from the American Type Culture Collect (ATCC, Manassas, VA). Briefly, cells are grown in Minimum Essential Media supplemented with 10% characterized fetal bovine serum (Invitrogen, Carlsbad, CA) and 1% Penicillin/Streptomycin/L-Glutamine at 37° C., 5% CO2, and 95% humidity. Cells are expanded until reaching 70-95% confluency at which point they are sub-cultured or harvested for assay use. A serial dilution of test compound is dispensed into a 384-well black clear bottom plate in triplicate. 750 cells are added per well in 50 μL complete growth medium in the 384-well plate. Plates are incubated for 115 to 120 h at 37° C., 5% CO2, and 95% humidity. At the end of the incubation, 40 μL of a […] solution of resazurin (Sigma, St. Louis, MO) in PBS is added to each well of the plate and plates are incubated for an additional 18 to 24 h at 37° C., 5% CO2, and 95% humidity. Plates are read on a Synergy2 or equivalent reader (Biotek, Winooski, VT) using an excitation of 540 nm and an emission of 600 nm. Data is analyzed using Prism software (Graphpad, San Diego, CA) to calculate IC50 values.
# MiaPaca-2 cells = experiment: MiaPaca-2 cell proliferation assay (resazurin); assay type: cell-based; conditions: Homo sapiens, MIA PaCa-2; Table 2, inhibition of cell proliferation; read-out: MiaPaca-2
# Description: MiaPaca-2 cells (catalog #CRL-1420) are obtained from the American Type Culture Collect (ATTC, Manassas, VA). Briefly, cells were grown in DMVEM supplemented with […] fetal bovine serum (Invitrogen, Carlsbad, CA), 2.5% New Zealand sourced horse serum and 1% Penicillin/Streptomycin/L-Glutamine at 37° C., […], and […]. Cells are expanded until reaching […] at which point they are sub-cultured or harvested for assay use. For assays completed in 96-well plates, a serial dilution of test compound is dispensed into a 96-well black clear bottom plate in triplicate. Three thousand cells are added per well in 200 μL complete growth medium in the 96-well plate. Plates are incubated for 67 to 72 h at 37° C., 5% CO2, and 95% humidity. At the end of the incubation, 40 μL of a […] solution of resazurin (Sigma, St. Louis, MO) in PBS is added to each well of the plate and plates are incubated for an additional 5 to 6 h at 37° C., 5% CO2, and 95% humidity. For 384-well assays, a threefold, 8-point serial dilution of compound was spotted column wise into a 384 well black, clear bottom, tissue culture treated plate using the Beckman Coulter Echo 650. Likewise, a threefold, 8-point serial dilution of cobimetinib was spotted row wise into the 384 well black, clear bottom plate containing compound. DMSO concentration was constant across all wells at 0.4%. Seven hundred fifty cells are added per well in 50 μL complete growth medium in each 384-well plate. Plates are incubated for 67 to 72 h at 37° C., 5% CO2, and 95% humidity. At the end of the incubation, 10 μL of a 440 μM solution of resazurin (Sigma, St. Louis, MO) in PBS is added to each well of the plate and plates are incubated for an additional 4 to 6 h at 37° C., 5% CO2, and 95% humidity. Plates are read on a Synergy2 or equivalent reader (Biotek, Winooski VT) using an excitation of 540 nm and an emission of 600 nm. Data is analyzed using Prism software (Graphpad, San Diego, CA) to calculate IC50 values.
# B-Raf kinase = biological target: T2, B-Raf kinase (Homo sapiens, UniProt P15056); experiment: Biochemical assay for B-Raf (coupled pyruvate kinase/lactate dehydrogenase)
# T2 construct: purchased Sigma
# [1] = Table 2, inhibition of cell proliferation, read-out: HCT-116
# [2] = Table 1, inhibition of biochemical activity, read-out: CRAF
# [3] = Table 2, inhibition of cell proliferation, read-out: HPAF-II
# [4] = Table 1, inhibition of biochemical activity, read-out: BRAF
# T2 sequence (P15056 416-766): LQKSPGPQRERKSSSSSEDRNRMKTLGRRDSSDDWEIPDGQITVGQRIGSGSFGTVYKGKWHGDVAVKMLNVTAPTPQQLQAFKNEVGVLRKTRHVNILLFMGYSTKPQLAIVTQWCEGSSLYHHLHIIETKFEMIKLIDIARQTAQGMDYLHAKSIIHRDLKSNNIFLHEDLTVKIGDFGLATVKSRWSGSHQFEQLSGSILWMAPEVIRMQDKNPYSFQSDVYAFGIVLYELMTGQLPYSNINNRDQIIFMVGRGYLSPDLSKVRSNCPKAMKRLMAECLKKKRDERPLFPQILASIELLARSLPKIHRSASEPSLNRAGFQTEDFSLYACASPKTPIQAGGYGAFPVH
# T1 sequence (P04049 307-648 Y340D/Y341D): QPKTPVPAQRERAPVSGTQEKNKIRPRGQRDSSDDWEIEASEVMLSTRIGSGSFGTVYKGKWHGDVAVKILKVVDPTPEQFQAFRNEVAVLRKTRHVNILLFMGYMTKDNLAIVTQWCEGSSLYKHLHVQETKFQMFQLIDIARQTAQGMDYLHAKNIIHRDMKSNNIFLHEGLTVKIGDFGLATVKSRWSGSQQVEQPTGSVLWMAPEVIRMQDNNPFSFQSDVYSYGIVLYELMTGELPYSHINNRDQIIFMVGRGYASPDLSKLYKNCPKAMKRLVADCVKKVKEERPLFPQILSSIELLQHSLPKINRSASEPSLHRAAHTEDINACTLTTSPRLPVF
Structure (SMILES),IC50 (HCT-116 cells; [1]) [nM],IC50 (C-Raf kinase; [2]) [nM],IC50 (MiaPaca-2 cells) [nM],IC50 (B-Raf kinase; [4]) [nM],"IC50 (HCT-116 cells; HCT-116, Table 4, read-out: HCT-116 IC50) [nM]","IC50 (C-Raf kinase; Table 4, read-out: CRAF IC50) [nM]","IC50 (B-Raf kinase; Table 4, read-out: BRAF IC50) [nM]",IC50 (Pa16c cells) [nM],IC50 (HPAF-II cells; [3]) [nM],"IC50 (HPAF-II cells; HPAF-II, Table 4, read-out: HPAF-II IC50) [nM]"
Cc1ccc(NC(=O)c2ccc(C(F)(F)F)nc2)cc1-c1ccnc(-c2ccnc(C(=O)NC3CC3)c2)c1 [Example 5],100 to 500,100 to 500,500 to 1000,1000 to 10000,,,,,,
CNC(=O)c1cc(-c2cncc(-c3cc(NC(=O)c4ccc(C(F)(F)F)nc4)ccc3C)c2)ncn1 [Example 10],,100 to 500,1000 to 10000,100 to 500,,,,,,
Cc1ccc(NC(=O)c2ccc(C(F)(F)F)nc2)cc1-c1cncc(-c2ccnc(C(N)=O)c2)c1 [Example 11],,100 to 500,1000 to 10000,500 to 1000,,,,,,
CNC(=O)c1cc(-c2cncc(-c3cc(NC(=O)c4cc(C(F)(F)F)cnn4)ccc3C)c2)ncn1 [Example 17],1000 to 10000,100 to 500,1000 to 10000,100 to 500,,,,1000 to 10000,1000 to 10000,
CNC(=O)c1cc(-c2cc(-c3cc(NC(=N)c4cc(C(F)(F)F)cnn4)ccc3C)ccn2)ccn1 [Example 20],1000 to 10000,100 to 500,1000 to 10000,500 to 1000,,,,1000 to 10000,1000 to 10000,
CNC(=O)c1cc(-c2cc(-c3cc(NC(=N)c4cc(C5CC5)cnn4)ccc3C)ccn2)ccn1 [Example 21],1000 to 10000,100 to 500,1000 to 10000,500 to 1000,,,,1000 to 10000,1000 to 10000,
"CNC(=O)c1cc(-c2cc(-c3cc(NC(=O)c4cc(C(N)=O)cnn4)ccc3C)cc(OCCO)n2)ccn1 [Example 52, N^3-(3-(6-(2-hydroxyethoxy)-2′-(methylcarbamoyl)-[2,4′-bipyridin]-4-yl)-4-methylphenyl)pyridazine-3,5-dicarboxamide]",1000 to 10000,< 100,1000 to 10000,100 to 500,,,,,1000 to 10000,
CNC(=O)c1cc(-c2cc(-c3cc(NC(=O)c4cc(C#N)cnn4)ccc3C)cc(NCCO)n2)ccn1 [Example 53],100 to 500,< 100,100 to 500,< 100,,,,,100 to 500,
CNC(=O)c1cc(-c2cc(-c3cc(NC(=O)c4cccc(C(C)(C)C#N)c4)ccc3C)cc(OCCO)n2)ccn1 [reference compound],,,,,100 to 500,< 100,< 100,,,500 to 1000

# The next lines start with results.
IC50 (HCT-116 cells; [1]) [nM],IC50 (C-Raf kinase; [2]) [nM],IC50 (MiaPaca-2 cells) [nM],IC50 (B-Raf kinase; [4]) [nM],"IC50 (HCT-116 cells; HCT-116, Table 4, read-out: HCT-116 IC50) [nM]","IC50 (C-Raf kinase; Table 4, read-out: CRAF IC50) [nM]","IC50 (B-Raf kinase; Table 4, read-out: BRAF IC50) [nM]",Structure (SMILES),IC50 (Pa16c cells) [nM],IC50 (HPAF-II cells; [3]) [nM],"IC50 (HPAF-II cells; HPAF-II, Table 4, read-out: HPAF-II IC50) [nM]"
< 100,< 100,< 100,< 100,,,,"Cc1ccc(NC(=O)c2cc(C(F)(F)F)cnn2)cc1-c1ccnc(-c2ccnc(C(N)=O)c2)c1 [Example 3, 4-(2-methyl-5-(5-(trifluoromethyl)pyridazine-3-carboxamido)phenyl)-[2,4′-bipyridine]-2′-carboxamide]",< 100,100 to 500,
100 to 500,< 100,100 to 500,100 to 500,,,,Cc1cc(-c2cc(NC(=O)c3cc(C(F)(F)F)cnn3)ccc2C)cc(-c2ccnc(C(N)=O)c2)n1 [Example 7],100 to 500,100 to 500,
100 to 500,< 100,500 to 1000,< 100,,,,CNC(=O)c1cc(-c2cc(-c3cc(NC(=O)c4cc(C5CC5)cnn4)ccc3C)nc(NCCO)n2)ccn1 [Example 8],1000 to 10000,1000 to 10000,
1000 to 10000,< 100,1000 to 10000,< 100,,,,CNC(=O)c1cc(-c2cc(-c3cc(NC(=O)c4cncc(C(F)(F)F)c4)ccc3C)ccn2)ccn1 [Example 12],1000 to 10000,1000 to 10000,
1000 to 10000,< 100,1000 to 10000,100 to 500,,,,CNC(=O)c1cc(-c2cc(-c3cc(NC(=O)c4cncc(C(F)(F)F)c4)ccc3C)cc(C)n2)ccn1 [Example 13],1000 to 10000,1000 to 10000,
500 to 1000,< 100,1000 to 10000,< 100,,,,CNC(=O)c1cc(-c2cc(-c3cc(NC(=O)c4cncc(C(C)(F)F)c4)ccc3C)ccn2)ccn1 [Example 14],,1000 to 10000,
,< 100,1000 to 10000,100 to 500,,,,CNC(=O)c1cc(-c2cc(-c3cc(NC(=O)c4cncc(C(C)(F)F)c4)ccc3C)cc(C)n2)ccn1 [Example 15],,,
500 to 1000,< 100,500 to 1000,< 100,,,,CNC(=O)c1cc(-c2cncc(-c3cc(NC(=O)c4cc(C(F)(F)F)cnn4)ccc3C)c2)ccn1 [Example 16],1000 to 10000,1000 to 10000,
100 to 500,< 100,100 to 500,< 100,,,,CNC(=O)c1cc(-c2cc(-c3cc(NC(=O)c4cc(C(F)(F)F)cnn4)ccc3C)nc(NCCO)n2)ccn1 [Example 19],500 to 1000,100 to 500,
1000 to 10000,< 100,1000 to 10000,< 100,,,,CNC(=O)c1cc(-c2nc(NCCO)cc(-c3cc(NC(=O)c4cc(C5CC5)cnn4)ccc3C)n2)ccn1 [Example 22],1000 to 10000,1000 to 10000,
100 to 500,< 100,100 to 500,< 100,,,,CNC(=O)c1cc(-c2cc(-c3cc(NC(=O)c4cc(C#N)cnn4)ccc3C)cc(N[C@H](C)CO)n2)ccn1 [Example 50],,500 to 1000,
500 to 1000,< 100,500 to 1000,100 to 500,,,,CNC(=O)c1cc(-c2cc(N)cc(-c3cc(NC(=O)c4cc(C(F)(F)F)cnn4)ccc3C)c2)ccn1 [Example 51],,1000 to 10000,
